{
  "source": "patent US20230020319A1",
  "about": "“COMPOSITIONS AND METHODS FOR OPTOCHEMICAL CONTROL OF MTOR SIGNALING AND MTOR-DEPENDENT AUTOPHAGY” (The University of Hong Kong, priority 2021, published 2023)",
  "key": {"mTORC2 signaling pathway": {"test_system": "mTORC2 signaling pathway", "test": "Western blot of mTORC2 signaling (Akt phosphorylation)", "format": "cell-based", "settings": "compared with the control group, with or without light (420 nm, 70 mW/cm^2, 3 min)", "experimental": "(§1) FIG. 5 is a photomicrograph showing bands corresponding to each of p-S6K, S6K, p-Akt, Akt, mTOR, and GAPDH, respectively, from cells treated with each of DMSO (control), OSI-027, DEACM, and cOSI-027, respectively, each with (+) or without (−) exposure to light (420 nm, 70 mW/cm^2, 3 min).\n(§2) To further investigate the mTOR inhibitory effect of OSI-027 and cOSI-027 with or without light irradiation, western blot was performed to analyze the protein expression level of mTOR pathway (FIG. 5). S6K and Akt phosphorylation ratios were chosen as markers for mTORC1 and mTORC2 signaling pathway investigation, respectively."}, "cancer cells": {"test_system": "cancer cells", "test": "MTT cell viability assay", "format": "cell-based", "experimental": "FIG. 8 is a bar graph showing cell viability (0%-150%) for cell groups treated with each of DMSO (control), OSI-027, DEACM, and cOSI-027, each at 50 μM, respectively, each with (+) or without (−) exposure to light. Light irradiation was done with a 420 nm LED (70 mW/cm^2, 3 min).\nTo investigate the anti-cancer effect of this photo-activatable prodrug system, MTT assay was further conducted to analyze the cell viability after the treatment with different formulations."}, "[1]": {"test_system": "mCherry-GFP-LC3 transfected HeLa cell line", "test": "CLSM of LC3 puncta in mCherry-GFP-LC3 cells", "format": "cell-based", "source_text": "FIGS. 7A-7B are photomicrographs showing the presence of mCherry and/or GFP following exposure to different formulations and respective quantitative analysis. FIG. 7A is a panel of photomicrographs showing the presence of mCherry and/or GFP in cells treated with each of DMSO, OSI-027, DEACM, and cOSI-027, each with light irradiation or no light, respectively. FIG. 7B is a graph showing number of LC3 puncta per cell (0-300) for each of the groups in FIG. 7A. Light irradiation was done with a 420 nm LED (70 mW/cm^2, 3 min).\nTo further validate the photoactivated effect on autophagy, a mCherry-GFP-LC3 transfected HeLa cell line was established to accurately monitor the LC3 expression and subcellular localization."}, "[2]": {"settings": "cited from earlier work"}, "autophagy activity": {"test_system": "autophagy activity", "test": "Western blot of autophagy level (LC3-II/LC3-I ratio)", "format": "cell-based", "source_text": "FIGS. 6A-6B show results of Western blotting and quantification of autophagy. FIG. 6A is a photomicrograph showing bands corresponding to each of LC3-I, LC3-II, and GADPH in cells treated with each of DMSO (control), OSI-027, DEACM, and cOSI-027, respectively, each with (+) or without (−) exposure to light. FIG. 6B is a graph showing normalized LC3-II/LC3-I ratio (0-15) for each of the bands in FIG. 6A including DMSO, OSI-027, DEACM, and cOSI-027, each with or without exposure to light, respectively. Light irradiation was done with a 420 nm LED (70 mW/cm^2, 3 min).\nmTORC1 inhibition leads to higher autophagy activity, resulting in enhanced protein degradation ability in the lysosome. Therefore, whether the photochemical-controlled mTOR inhibition strategy can be used for manipulating autophagy activity was investigated. Autophagy level was characterized by the LC3-II/LC3-I ratio through western blot analysis (FIGS. 6A-6B). 24 h after the drug treatment, OSI-027 increased the LC3-II/LC-I ratio compared with the control group, indicating a higher autophagy activity. And cOSI-027 treatment led to a higher LC3-II/LC3-I ratio after light irradiation, compared with non-irradiation group."}, "mTORC1 signaling pathway": {"test_system": "mTORC1 signaling pathway", "test": "Western blot of mTORC1 signaling (S6K phosphorylation)", "format": "cell-based", "settings": "compared with the control group, with or without light (420 nm, 70 mW/cm^2, 3 min)", "experimental": "as §1, §2"}, "[3]": {"test": "Photocleavage of cOSI-027 by HPLC, 420 nm light", "format": "physicochemical", "settings": "70 mW/cm^2", "experimental": "FIGS. 4A and 4B show the photocleavage of cOSI-027 by HPLC and quantitative analysis. FIG. 4A is a line graph showing the photocleavage of cOSI-027 by HPLC analysis, with 0-1000 mA.U. at the wavelength (342 nm) for cOSI-027 and for OSI-027 when exposed to 420 nm light at 70 mW/cm^2 for 0, 1, 3, 5, 7, 10, or 15 min, respectively. FIG. 4B is a graph showing remaining cOSI-027 (0-400 μM) and released OSI-027 (0-300 μM) over light irradiation time (0, 1, 3, 5, 7, 10, or 15 min, respectively).\nThe optochemcial characteristics of the caged OSI-027 prodrug were analyzed by spectroscopy (FIGS. 3A-3C). The absorption peaks of the prodrug were located at 300 nm and 380 nm. The emission peak was located at 460 nm under 380 nm excitation. […] To further verify the photocleavage reaction after light irradiation, high performance liquid chromatography (HPLC) was utilized to monitor the cleavage and release of OSI-027 after light irradiation."}},
  "note": "“Also recorded” adds a separate entry of the source.",
  "data": [
    {"smiles": "COc1cccc2cc(-c3nc([C@H]4CC[C@H](C(=O)O)CC4)n4ncnc(N)c34)[nH]c12", "note": "[OSI-027, Trans-4-[4-amino-5-(7-methoxy-1H-indol-2-yl)imidazo[5,1-f][1,2,4]triazin-7-yl]-cyclohexanecarboxylic acid]", "values": [
      {"measurement": "phosphorylation of Akt (marker for mTORC2 signaling)", "setting": "mTORC2 signaling pathway", "value": "decreased"},
      {"measurement": "viability at 50 µM", "setting": "cancer cells; after 48 h incubation", "value": "~30", "unit": "%"},
      {"measurement": "number and area of red and yellow puncta in the cells", "setting": "[1]; compared with the control group", "value": "significantly increase"},
      {"measurement": "patients with stable disease", "setting": "[2]; 8-12-week follow-up assessment", "value": 29.7, "unit": "% patients"},
      {"measurement": "patients free of progression for more than 24 weeks", "setting": "[2]; of the patients with stable disease", "value": "six"},
      {"measurement": "toxicity and adverse effects", "setting": "[2]; phase I clinical trial observations", "value": "induced dose-limiting toxicities (DLT) and adverse effects; also recorded: induced fatigue, gastrointestinal disorders, decreased cardiac function and cardiomyopathy, bone pain, and hyperglycemia; also recorded: frequently led to renal dysfunction"},
      {"measurement": "LC3-II/LC3-I ratio", "setting": "autophagy activity; 24 h after the drug treatment, compared with the control group", "value": "increased"},
      {"measurement": "phosphorylation of S6K (marker for mTORC1 signaling)", "setting": "mTORC1 signaling pathway", "value": "decreased"}
    ]},
    {"smiles": "CCN(CC)c1ccc2c(COC(=O)C3CCC(c4nc(-c5cc6cccc(OC)c6[nH]5)c5c(N)ncnn45)CC3)cc(=O)oc2c1", "note": "(stereo not drawn) [cOSI-027]", "values": [
      {"measurement": "phosphorylation of Akt (marker for mTORC2 signaling)", "setting": "mTORC2 signaling pathway", "value": "only exhibited significant inhibitory effect on mTORC1 and mTORC2 pathway after light irradiation"},
      {"measurement": "cell viability", "setting": "cancer cells; 50 μM, after light irradiation (420 nm LED, 70 mW/cm^2, 3 min)", "value": "significantly lower"},
      {"measurement": "puncta number", "setting": "[1]; after light irradiation (420 nm LED, 70 mW/cm^2, 3 min)", "value": "increased"},
      {"measurement": "release of OSI-027 (HPLC)", "setting": "[3]; after 1 min of 420 nm light irradiation", "value": "generation of OSI-027 was characterized by the new peak"},
      {"measurement": "photocleavage (HPLC)", "setting": "[3]; after 3 min irradiation, 420 nm", "value": "almost completed"},
      {"measurement": "LC3-II/LC3-I ratio", "setting": "autophagy activity; after light irradiation (420 nm LED, 70 mW/cm^2, 3 min), compared with non-irradiation group", "value": "higher"},
      {"measurement": "phosphorylation of S6K (marker for mTORC1 signaling)", "setting": "mTORC1 signaling pathway", "value": "only exhibited significant inhibitory effect on mTORC1 and mTORC2 pathway after light irradiation"}
    ]}
  ]
}
